From ChEMBL document CHEMBL1129911, “Synthesis, characterization, interaction with DNA, and antitumor activity of a cis-Dichloroplatinum(II) complex linked to an intercalator via one methylene chain” (Bioorg Med Chem Lett, 1997) come the findings set out here.

Molecules are shown by their SMILES.

In the assay the test system is Nucleic Acid. The assay is described as follows: The association constant was obtained from absorption spectral change. The class given is nucleic-acid assay.

With `NCCNCc1c2ccccc2nc2ccccc12`, the K ass turned out to be 36000 M⁻¹.
